Assay results taken from patent publication US20120234256A1, “[…] DEVICE” (priority 2009, published 2012).

Tests used:
[1] = tested on: persistent and neuropathic pain; conditions: animal studies; cited from earlier work
human neuropathic pain = conditions: in the clinic; cited from earlier work
[2] = tested on: rats with formalin injection into one hindpaw; experiment: Mechanical conflict device (MCD) test, inflammatory pain from formalin injection into one hindpaw; assay type: in vivo, rat; conditions: formalin 0.2%, s.c. into one hindpaw, morphine 2.5 mg/kg i.p.
Description: (§1) The mechanical conflict device can be used in various methods. With reference now to FIGS. 3-7, the MCD 10 of the present technology can be used to measure the response of a laboratory animal 17, such as a rat, to noxious mechanical stimuli. In this test, exit or escape from an aversive environment to a preferred environment is deterred by a noxious mechanical stimulus represented by the pins 60 on a raised pin platform 80, as shown in FIG. 6. In an initial MCD 10 training period, the pins 60 are lowered below the alley floor 50 and the laboratory animal 17 is placed into the holding compartment 20. […] The holding compartment 20 and the alley compartment 30 can be illuminated with normal room lighting. In some embodiments, the holding compartment 20 and/or the alley compartment 30 are supplemented by a light source 220, for example, a high-intensity, white-light LED array positioned above the alley compartment 30, as shown in FIGS. 3-6. At that time, panel walls 110 and 120 can be raised to allow the laboratory animal 17 to learn that it can exit from the mildly aversive stimuli (the light 220) in the holding compartment 20 and alley compartment 30 and move across the floor 50, passing into the more comfortable compensatory compartment 40 where it is generally dim and provides the laboratory animal 17 with a generally more rewarding area. […]

CCI rats = experiment: Mechanical conflict device (MCD) test, neuropathic pain from chronic constriction injury (CCI) of the left sciatic nerve; assay type: in vivo, rat; conditions: pregabalin 10 and 30 mg/kg, i.p.
Description: as §1

For `COc1ccccc1CN(C[C@@H](Cc1c[nH]c2ccccc12)NC(=O)CN1CCC(N2CCCCC2)CC1)C(C)=O` [LY 303870], the “Relief of persistent and neuropathic pain” value [1] is listed as “did relieve persistent and neuropathic pain” and the “Analgesia against human neuropathic pain” value (human neuropathic pain) is listed as “failed”.
In the case of `CN1CC[C@]23c4c5ccc(O)c4O[C@H]2[C@@H](O)C=C[C@H]3[C@H]1C5` [morphine], the “Increased latency to exit produced by formalin injection” value ([2]; FIG. 14) is reported as “not reduced” and the “Increased time spent on the stimulus array produced by formalin injection” value ([2]; FIG. 15) is reported as “attenuated”.
For `CC(C)C[C@H](CN)CC(=O)O` [pregabalin], the “Latency to exit (light chamber)” value (CCI rats; FIG. 12) was “modulated” and the “Time spent on the stimulus array” value (CCI rats; FIG. 13) was “not modulated”.
